ChEMBL document CHEMBL2074377, “Transport of glutathione prostaglandin A conjugates by the multidrug resistance protein 1” (FEBS Lett, 1997)

How the values were obtained:
Type in all cases: functional, cell membranes, Membrane vesicle
[1] = molecular target: T1, Multidrug resistance-associated protein 1 (Homo sapiens, UniProt P33527); experiment: TP_TRANSPORTER: uptake in membrane vesicles from MRP1-expressing DTY 168 yeast cells
[2] = molecular target: MRP1 (Multidrug resistance-associated protein 1) (Homo sapiens, UniProt P33527); experiment: TP_TRANSPORTER: inhibition of EA-GS uptake (EA-GS: 0.2 uM, GA1: 10 uM, in the presence of GSH) in membrane vesicles from MRP1-expressing DTY 168 yeast cells; parameters: scale not given: the % may be the effect or the level left; settings: probe EA-GS (0.2 uM), read-out: Activity
[3] = molecular target: T1, Multidrug resistance-associated protein 1; experiment: TP_TRANSPORTER: inhibition of EA-GS uptake (EA-GS: 0.2 uM,PGA2: 10 uM, in the presence of GSH) in membrane vesicles from MRP1-expressing DTY 168 yeast cells; parameters: scale not given: the % may be the effect or the level left; settings: dty 168, 10 µM

T1 sequence (P33527 whole entry): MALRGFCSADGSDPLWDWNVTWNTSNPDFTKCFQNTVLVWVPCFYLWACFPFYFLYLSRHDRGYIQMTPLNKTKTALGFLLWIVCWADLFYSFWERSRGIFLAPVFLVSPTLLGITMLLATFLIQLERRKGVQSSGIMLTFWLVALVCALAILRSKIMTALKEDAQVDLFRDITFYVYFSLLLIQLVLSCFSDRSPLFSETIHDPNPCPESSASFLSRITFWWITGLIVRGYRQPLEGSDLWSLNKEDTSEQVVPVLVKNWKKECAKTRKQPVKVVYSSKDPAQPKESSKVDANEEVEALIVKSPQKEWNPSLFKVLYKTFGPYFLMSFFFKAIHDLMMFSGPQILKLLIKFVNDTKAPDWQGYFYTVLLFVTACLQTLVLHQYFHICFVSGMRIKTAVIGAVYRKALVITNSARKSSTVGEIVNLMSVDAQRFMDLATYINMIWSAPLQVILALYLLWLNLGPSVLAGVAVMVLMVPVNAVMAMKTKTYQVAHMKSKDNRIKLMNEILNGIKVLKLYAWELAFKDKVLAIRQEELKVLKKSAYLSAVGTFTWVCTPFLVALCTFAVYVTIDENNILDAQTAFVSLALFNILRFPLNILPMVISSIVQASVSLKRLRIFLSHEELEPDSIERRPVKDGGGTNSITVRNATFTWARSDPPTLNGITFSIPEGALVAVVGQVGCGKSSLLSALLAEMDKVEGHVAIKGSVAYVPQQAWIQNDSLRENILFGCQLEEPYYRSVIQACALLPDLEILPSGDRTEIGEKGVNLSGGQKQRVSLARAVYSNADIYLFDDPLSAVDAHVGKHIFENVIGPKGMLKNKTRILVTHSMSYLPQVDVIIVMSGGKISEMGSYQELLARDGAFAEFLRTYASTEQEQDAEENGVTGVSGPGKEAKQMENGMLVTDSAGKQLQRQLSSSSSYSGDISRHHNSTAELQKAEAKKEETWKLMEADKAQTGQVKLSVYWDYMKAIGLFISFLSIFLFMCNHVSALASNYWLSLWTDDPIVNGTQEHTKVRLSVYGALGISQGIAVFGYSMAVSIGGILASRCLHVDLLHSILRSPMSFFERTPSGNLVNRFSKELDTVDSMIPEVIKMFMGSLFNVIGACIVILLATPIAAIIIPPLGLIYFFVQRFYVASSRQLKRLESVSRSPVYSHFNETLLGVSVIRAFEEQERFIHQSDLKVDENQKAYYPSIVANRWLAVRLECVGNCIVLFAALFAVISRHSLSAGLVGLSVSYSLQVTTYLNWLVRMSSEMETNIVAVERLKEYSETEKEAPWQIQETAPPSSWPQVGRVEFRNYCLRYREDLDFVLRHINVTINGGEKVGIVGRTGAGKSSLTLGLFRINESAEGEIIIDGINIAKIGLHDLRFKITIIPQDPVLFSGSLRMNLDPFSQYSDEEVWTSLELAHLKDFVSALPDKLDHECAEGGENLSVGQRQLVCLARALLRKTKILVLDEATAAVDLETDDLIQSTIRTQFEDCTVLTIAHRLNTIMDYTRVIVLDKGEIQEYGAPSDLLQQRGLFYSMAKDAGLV
Sequence of MRP1 (Multidrug resistance-associated protein 1) (P33527 whole entry): as above

Compound: CCCCC[C@H](O)/C=C/[C@H]1C(SC[C@@H](NC(=O)CC[C@@H](N)C(=O)O)C(=O)NCC(=O)O)CC(=O)[C@H]1C/C=C\CCCC(=O)O (stereo partly drawn)
- Km [1]: substrate [Km=0.8-1uM]

Compound: CCCCC[C@H](O)/C=C/[C@H]1C=CC(=O)[C@@H]1CCCCCCC(=O)O [PROSTAGLANDIN A1]
- activity at 10 µM [2]: 15%

Compound: CCCCC[C@H](O)/C=C/[C@H]1C=CC(=O)[C@@H]1C/C=C\CCCC(=O)O [PROSTAGLANDIN A2]
- Activity [3]: 9%
